Laboratory results taken from patent US12121510B2 (Cedars-Sinai Medical Center, priority 2016, dated 2024).
pIC50: −log10 of the molar value. Where two headings read alike, the source gives them in different places.

Tests used:
[1] = test system: A549 or A549/DDP cells; assay: CIS IC50 with constant DZ-SIM ester or amide, Crystal Violet assay; format: cell-based, human; conditions: 72 h; for Sensitization of cancer cells to CIS: combination with CIS
Description: Cell proliferation is determined by a Crystal Violet assay. The data represent the mean+/−SEM for two assays done in quadruplicate.

[2] = test system: Daudi; assay: Lymphoma cell growth IC50 (MTT); format: cell-based, human; conditions: Example 13, 72 h, read-out: IC50
Excerpt: (§1) Exemplary Embodiments are generally performed as follows, unless otherwise noted. Simvastatin is purchased from Ark Pharm, Inc. (Arlington Heights, IL). Cisplatin (CIS) is purchased from MedKoo Biosciences, Inc. (Chapel Hill, NC). Dihydroartemisinin is purchased from TCI America (Portland, OR). All other chemicals and reagents are purchased from standard sources such as Sigma-Aldrich and/or VWR and are of highest quality available. Puromycin dihydrochloride was purchased from Alfa Aesar (Tewksbury, MA). Deionized water ([…]) used for making solutions is obtained from Milli-Q Direct Ultrapure Water System from Millipore (Billerica, MA, USA). All intermediates are characterized by 1H NMR and mass analysis and the purity of compounds are analyzed by HPLC. 1H NMR data are collected on Bruker 400 MHz spectrometers using standard parameters; chemical shifts are reported in ppm (δ) in reference to residual non-deuterated solvent. ESI mass spectroscopy analysis is performed using a Thermo Fisher LTQ Orbitrap Elite system. IC50 is the half maximal inhibitory concentration and determined is determined by crystal violet assay unless otherwise noted.
(§2) The crystal violet assay is performed as follows, unless otherwise noted. Cell lines are supplemented with RPMI 1640 medium, 10% fetal bovine serum, 1% PenStrep, and placed in a humidified atmosphere containing 5% CO2 at 37° C. 5,000 cells/well renal cancer cells and 10,000 cells/well lymphoma cells are seeded in 96 well plates in 100 microliter medium/per well for 24 h. […] Renal cancer cells are fixed with 3.7% paraformaldehyde for 15 minutes and are stained with Crystal violet solution (0.5% in 25% methanol) for 30 minutes. After rinsing with water cell layers are dried and decolorized with Sorenson citrate with shaking for 20 minutes. Light absorption of the extracted supernatant is read at 595 nm. Lymphoma cell growth was evaluated using MTT and cells are incubated for 4 hours. 100 microliters of isopropanol is added, and the extracted supernatant fraction is read at absorption maximum of 595 nm.
(§3) Standard cell culture conditions typically are RPMI 1640 medium, 10% fetal bovine serum, 1% PenStrep, and are performed in a humidified atmosphere containing 5% CO2 at 37° C. Generally, 5,000 cells/well-10,000 cells/well are seeded in 96 well plates in 100 microliter medium/per well for 24 h, or as described in Example 16, unless otherwise noted. Certain cells require specialized media, growth factors, antibiotics, or culture condition adjustments, as will be apparent to a person of ordinary skill in the art.
as §2, with “Cell” for “The crystal violet assay is performed as follows, unless otherwise noted. Cell”, “cultured as follows. […]” for “supplemented with RPMI 1640 medium, 10% fetal bovine serum, 1% PenStrep, and placed in a humidified atmosphere containing 5% CO2 at 37° C.”, “is” for “was”

[3] = test system: Namalwa; assay: Lymphoma cell growth IC50 (MTT); format: cell-based, human
Excerpt: as §1, §2, §3
as §2, with “Cell” for “The crystal violet assay is performed as follows, unless otherwise noted. Cell”, “cultured as follows. […]” for “supplemented with RPMI 1640 medium, 10% fetal bovine serum, 1% PenStrep, and placed in a humidified atmosphere containing 5% CO2 at 37° C.”, “is” for “was”

[4] = test system: Raji; assay: Lymphoma cell growth IC50 (MTT); format: cell-based, human; conditions: Example 13, 72 h, read-out: IC50
Excerpt: as §1, §2, §3
as §2, with “Cell” for “The crystal violet assay is performed as follows, unless otherwise noted. Cell”, “cultured as follows. […]” for “supplemented with RPMI 1640 medium, 10% fetal bovine serum, 1% PenStrep, and placed in a humidified atmosphere containing 5% CO2 at 37° C.”, “is” for “was”

[5] = test system: Ramos; assay: Lymphoma cell growth IC50 (MTT); format: cell-based, human; conditions: Example 13, 72 h, read-out: IC50
Excerpt: as §1, §2, §3
as §2, with “Cell” for “The crystal violet assay is performed as follows, unless otherwise noted. Cell”, “cultured as follows. […]” for “supplemented with RPMI 1640 medium, 10% fetal bovine serum, 1% PenStrep, and placed in a humidified atmosphere containing 5% CO2 at 37° C.”, “is” for “was”

[6] = test system: 22Rv1; assay: Cancer cell growth IC50 (crystal violet); format: cell-based, human; conditions: Example 13, 72 h
Excerpt: as §1
(§4) The crystal violet assay is performed as follows, unless otherwise noted. Cell lines are supplemented with RPMI 1640 medium, 10% fetal bovine serum, 1% PenStrep, and placed in a humidified atmosphere containing 5% CO2 at 37° C. 5,000 cells/well renal cancer cells and 10,000 cells/well lymphoma cells are seeded in 96 well plates in 100 microliter medium/per well for 24 h. […] Renal cancer cells are fixed with 3.7% paraformaldehyde for 15 minutes and are stained with Crystal violet solution (0.5% in 25% methanol) for 30 minutes. After rinsing with water cell layers are dried and decolorized with Sorenson citrate with shaking for 20 minutes. Light absorption of the extracted supernatant is read at 595 nm. Lymphoma cell growth was evaluated using MTT and cells are incubated for 4 hours. 100 microliters of isopropanol is added, and the extracted supernatant fraction is read at absorption maximum of 595 nm. […]

[7] = test system: ARCaP-E; assay: Cancer cell growth IC50 (crystal violet); format: cell-based; conditions: Example 13, 72 h
Excerpt: as §1, §2, §3

[8] = test system: C4-2B; assay: Cancer cell growth IC50 (crystal violet); format: cell-based
Excerpt: as §1, §2, §3

[9] = test system: C4-2; assay: Cancer cell growth IC50 (crystal violet); format: cell-based; conditions: Example 13, C42, 72 h
Excerpt: as §1, §2, §3

[10] = test system: LNCaP; assay: Cancer cell growth IC50 (crystal violet); format: cell-based; conditions: Example 13, 72 h
Excerpt: as §1, §2, §3

[11] = test system: MCF-7; assay: Cancer cell growth IC50 (crystal violet); format: cell-based
Excerpt: as §1, §2, §3

[12] = test system: PC3M; assay: Cancer cell growth IC50 (crystal violet); format: cell-based; conditions: Example 13, 72 h
Excerpt: as §1, §2, §3

[13] = test system: PC3; assay: Cancer cell growth IC50 (crystal violet); format: cell-based
Excerpt: as §1, §2, §3

[14] = test system: U87; assay: Cancer cell growth IC50 (crystal violet); format: cell-based; conditions: Example 13, 72 h
Excerpt: as §1, §2, §3

[15] = test system: MIAPaCa II; assay: Cancer cell growth IC50 / sensitization (crystal violet); format: cell-based
Excerpt: as §1, §4

[16] = test system: CTC 752-S-1; assay: Circulating tumor cell growth IC50 / sensitization; format: cell-based, human; conditions: for pIC50: Homo sapiens, Example 23, CTC 752-S-1
Excerpt: as §1, §3
Pancreatic cancer cells are cultured for 72 hours in vitro and exposed to the conventional chemotherapeutic drugs Gemcitabine (GEM) and Paclitaxel (PAC), known to inhibit pancreatic cancer growth in patients. GEM (or PAC) alone are compared to a combination with SIM, or a combination with DZ-SIM. […] Representative results are illustrated in the graphs in FIG. 3.
Cells are cultured according to their standard culturing conditions, and IC50s are determined as described herein-above.
Representative results of the determined IC50s are shown in the table below for the indicated cancer cells cultured in vitro, including CTCs (C752-S-1), B-Cell Lymphoma (Namalwa), prostate cancer cells (C4-2B), and renal cancer cells (Caki-1). The cells are cultured according to their standard culturing conditions, and IC50s are determined as described herein-above.

[17] = test system: Ramos, a B-cell lymphoma, cultured as 3-D spheroids; assay: Cell viability IC50 in 3-D spheroids; format: cell-based, human; conditions: for pIC50: Homo sapiens, Ramos 3-D spheroids, single agent
Excerpt: as §1
Cancer cells were Ramos, a B-cell lymphoma, cultured as 3-D spheroids, cultured according to their standard culturing conditions.

[18] = test system: NKPC-961; assay: Sensitization of pancreatic cancer cells to CIS and GEM; format: cell-based, mouse
Excerpt: GEM (or PAC) alone are compared to a combination with SIM, or a combination with DZ-SIM.

[19] = test system: 22Rv1 tumors; assay: Prostate tumor xenograft growth; format: in vivo, mice; conditions: IP twice per week, 37 days; SIM 1.1 mg/kg, DZ-SIM 5.5 mg/kg, DT 8 mg/kg
Description: A human prostate tumor xenograft model, 22Rv1 in immune compromised mice, is employed as follows. 1×10^6 freshly harvested cells of a cultured human prostate carcinoma cell line, 22Rv1, are inoculated s.q. in mice. Mice bearing 22Rv1 tumors (10 tumors/group) are randomized into 7 groups on day-1, and administered drugs by IP (intraperitoneally) at the next day (day-2), and subsequently twice per week, using the following drugs and dosages: a control/vehicle (V, i.e. no drug), DZ (5 μM or 3.9 mg/kg, calculated based on the body weight of mice which averaged 20 grams), SIM (5 μM or 1.1 mg/kg), DZ-SIM (5 μM or 5.5 mg/kg), docetaxel (DT, 8 mg/kg), SIM+DT (drug doses as indicated), and DZ-SIM+DT (drug doses as indicated). Administration is continued for a total of 37 days, and tumor volumes are measured at the indicated times (see FIG. 4). […] Thus therapeutically resistant prostate tumors can be rendered sensitive by DZ-SIM but not SIM.

[20] = test system: Caki-1; assay: Renal cancer cell growth IC50 (crystal violet); format: cell-based, human; conditions: Homo sapiens; Example 23; Caki-1; read-out: IC50
Excerpt: as §1, §2, §3
as §2, with “Cell” for “The crystal violet assay is performed as follows, unless otherwise noted. Cell”, “cultured as follows. […]” for “supplemented with RPMI 1640 medium, 10% fetal bovine serum, 1% PenStrep, and placed in a humidified atmosphere containing 5% CO2 at 37° C.”, “is” for “was”

[21] = Homo sapiens, Example 23, read-out: IC50

## CCC(C)(C)C(=O)O[C@H]1C[C@@H](C)C=C2C=C[C@H](C)[C@H](CC[C@@H](O)C[C@@H](O)CC(=O)CCCCNC(=O)CCCCCN3/C(=C/C=C4\CCCC(/C=C/C5=[N+](CCCCS(=O)(=O)[O-])c6ccccc6C5(C)C)=C4Cl)C(C)(C)c4ccccc43)[C@H]21 [DZ-SIM amide]
[1]
  Sensitization of cancer cells to CIS: sensitize cancer cells to CIS

## CCC(C)(C)C(=O)O[C@H]1C[C@@H](C)C=C2C=C[C@H](C)[C@H](CC[C@@H]3C[C@@H](OC(=O)CCCCCN4/C(=C/C=C5\CCCC(/C=C/C6=[N+](CCCCS(=O)(=O)[O-])c7ccccc7C6(C)C)=C5Cl)C(C)(C)c5ccccc54)CC(=O)O3)[C@H]21 [DZ-SIM ester]
[2]
  pIC50: 5.25
[3]; Example 13, 72 h, read-out: IC50
  pIC50: 5.15
[4]
  pIC50: 5.06
[5]
  pIC50: 5.56
[6]
  pIC50: 5.31
[7]
  pIC50: 5.32
[8]; Example 13, 72 h
  pIC50: 5.74
[9]
  pIC50: 5.37
[10]
  pIC50: 5.75
[11]; Example 13, 72 h
  pIC50: 5.00
[12]
  pIC50: 5.28
[13]; Example 13, 72 h
  pIC50: 5.15
[14]
  pIC50: 5.88
[15]; Example 13, 72 h
  pIC50: 5.67
[16]; CTC-752-S-1 human pancreatic cancer cells, 72 hours
  Sensitization to GEM or PAC: more effective sensitizer to GEM or PAC than SIM
[17]; 72 h
  pIC50: 5.56
[17]; Ramos, 2 μM DZ-SIM ester
  Increase of CIS cytotoxicity: over 190 fold
[17]; Ramos, 72 h
  Potency relative to SIM: 5 fold
[18]
  Sensitization to CIS and GEM: about equally sensitize
[1]
  Reduction of the IC50 of CIS by combination: up to 200 fold
  Sensitization of cancer cells to CIS: sensitize cancer cells to CIS
[19]
  Growth of 22Rv1 tumors in vivo (tumor volume): inhibited the growth of tumors in vivo

## COc1cccc2c1C(=O)c1c(O)c3c(c(O)c1C2=O)C[C@@](O)(C(=O)CO)C[C@@H]3O[C@H]1C[C@H](N)[C@H](O)[C@H](C)O1 [Doxorubicin]
[3]; [21]
  pIC50: 6.18
[20]
  pIC50: 6.06
[8]; Example 23
  pIC50: 7.37
[16]
  pIC50: 5.74

## COc1ccc(C[C@H](N)C(=O)N[C@H]2[C@@H](O)[C@H](n3cnc4c(N(C)C)ncnc43)O[C@@H]2CO)cc1 [Puromycin]
[3]; [21]
  pIC50: 6.01
[20]
  pIC50: 6.13
[8]; Example 23
  pIC50: 6.60
[16]
  pIC50: 5.31

## CCC(C)(C)C(=O)O[C@H]1C[C@@H](C)C=C2C=C[C@H](C)[C@H](CC[C@@H]3C[C@@H](O)CC(=O)O3)[C@H]21 [SIM, Simvastatin]
[2]; Homo sapiens
  pIC50: 4.82
[3]; Homo sapiens, Example 13, 72 h, read-out: IC50
  pIC50: 4.87
[4]; Homo sapiens
  pIC50: 4.49
[5]; Homo sapiens
  pIC50: 4.89
[6]; Homo sapiens
  pIC50: 5.45
[7]
  pIC50: 5.25
[8]; Example 13, 72 h
  pIC50: 5.73
[9]; C4-2
  pIC50: 5.11
[10]; Homo sapiens
  pIC50: 5.42
[11]; Homo sapiens, MCF7, Example 13, 72 h
  pIC50: 5.57
[12]; Homo sapiens, PC-3M
  pIC50: 6.61
[13]; Homo sapiens, PC-3, Example 13, 72 h
  pIC50: 6.00
[14]; Homo sapiens, U-87 MG
  pIC50: 6.30
[15]; MIA PaCa-2, Example 13, 72 h
  pIC50: 6.23
[17]; 72 h
  pIC50: 4.89
